From ChEMBL document CHEMBL1201862, “PubChem BioAssay data set” (2004)
Calls of active or inactive are those of the source.

Columns and labels:
[1] = target: T1, Calpain-2 catalytic subunit (Sus scrofa, UniProt P43367); test: m-calpain protease blockers, concentration series – biochemical, fluorogenic peptide substrate, dose response (AID 1420); assay type: functional
T1 sequence (P43367 whole entry): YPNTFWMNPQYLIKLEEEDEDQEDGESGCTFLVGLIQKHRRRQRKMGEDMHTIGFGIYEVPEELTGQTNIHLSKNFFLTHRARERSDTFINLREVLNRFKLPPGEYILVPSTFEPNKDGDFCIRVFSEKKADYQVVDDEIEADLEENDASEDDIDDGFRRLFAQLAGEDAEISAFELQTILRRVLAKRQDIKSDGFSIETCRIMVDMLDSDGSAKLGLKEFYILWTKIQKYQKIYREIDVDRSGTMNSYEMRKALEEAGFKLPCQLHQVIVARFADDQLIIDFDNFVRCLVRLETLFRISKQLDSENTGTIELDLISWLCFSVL

[2] = test system: Vero; test: cells; assay type: functional; details: Chlorocebus sabaeus
[3] = viability of uninfected HEp-2 cells – cell-based, HTS, cytotoxicity control for RSV inhibitor project, dose response (AID 2410); assay type: functional; details: human respiratory syncytial virus
[4] = target: FAD-linked sulfhydryl oxidase ALR (Homo sapiens, UniProt P55789); test: ALR-catalysed DTT oxidation blockers – biochemical, H2O2 detection, luminescence, cherry-pick, dose response (AID 493248)
FAD-linked sulfhydryl oxidase ALR, sequence (P55789 whole entry): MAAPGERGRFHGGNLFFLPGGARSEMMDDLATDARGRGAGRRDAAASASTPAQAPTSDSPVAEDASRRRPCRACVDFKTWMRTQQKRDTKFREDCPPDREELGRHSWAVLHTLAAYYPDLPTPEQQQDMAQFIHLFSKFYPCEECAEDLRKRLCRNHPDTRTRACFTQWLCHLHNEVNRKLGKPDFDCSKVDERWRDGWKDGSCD

[5] = reduction of Shn3 3'UTR-driven luciferase in osteoblasts – cell-based, Clone20 osteoblasts, firefly luciferase, cherry-picked, dose response (AID 624132); assay type: functional;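 also: firefly luciferase luminescence from reporter carrying the Shn3 3'UTR in osteoblasts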
[6] = loss of viability in HepG2 cells – cell-based, CellTiter-Glo, cherry-picked, cytotoxicity control for Shn3 inhibitor project, dose response (AID 624134); assay type: functional
[7] = non-specific 3'UTR reporter inhibition in Clone20-Shn3RL – cell-based, Renilla luciferase, cherry-picked, counter-screen for Shn3 inhibitor project, dose response (AID 624133); assay type: functional
[8] = NIH-3T3 fibroblast cytotoxicity, dose response, cytotoxicity control, cell-based, fluorescence, Alamar Blue, secondary assay (AID 2327); assay type: functional;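 also: NIH-3T3 mouse fibroblasts cultured with fluconazole at 8 µg/mL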
[9] = fluconazole-exposed Candida albicans growth modulators – fluorescence, retest, confirmation (AID 2467); assay type: functional, cell-based
[10] = target: T2, Fatty acid synthase (Homo sapiens, UniProt P49327); test: inhibition of human FAS-TE enzyme activity – biochemical, endpoint fluorescence intensity, uHTS hits, dose response (AID 624327); assay type: functional;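 also: fluorescence from hydrolysis of an O-methyl fluorescein acyl ester substrate by the enzyme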
T2 sequence (P49327 whole entry): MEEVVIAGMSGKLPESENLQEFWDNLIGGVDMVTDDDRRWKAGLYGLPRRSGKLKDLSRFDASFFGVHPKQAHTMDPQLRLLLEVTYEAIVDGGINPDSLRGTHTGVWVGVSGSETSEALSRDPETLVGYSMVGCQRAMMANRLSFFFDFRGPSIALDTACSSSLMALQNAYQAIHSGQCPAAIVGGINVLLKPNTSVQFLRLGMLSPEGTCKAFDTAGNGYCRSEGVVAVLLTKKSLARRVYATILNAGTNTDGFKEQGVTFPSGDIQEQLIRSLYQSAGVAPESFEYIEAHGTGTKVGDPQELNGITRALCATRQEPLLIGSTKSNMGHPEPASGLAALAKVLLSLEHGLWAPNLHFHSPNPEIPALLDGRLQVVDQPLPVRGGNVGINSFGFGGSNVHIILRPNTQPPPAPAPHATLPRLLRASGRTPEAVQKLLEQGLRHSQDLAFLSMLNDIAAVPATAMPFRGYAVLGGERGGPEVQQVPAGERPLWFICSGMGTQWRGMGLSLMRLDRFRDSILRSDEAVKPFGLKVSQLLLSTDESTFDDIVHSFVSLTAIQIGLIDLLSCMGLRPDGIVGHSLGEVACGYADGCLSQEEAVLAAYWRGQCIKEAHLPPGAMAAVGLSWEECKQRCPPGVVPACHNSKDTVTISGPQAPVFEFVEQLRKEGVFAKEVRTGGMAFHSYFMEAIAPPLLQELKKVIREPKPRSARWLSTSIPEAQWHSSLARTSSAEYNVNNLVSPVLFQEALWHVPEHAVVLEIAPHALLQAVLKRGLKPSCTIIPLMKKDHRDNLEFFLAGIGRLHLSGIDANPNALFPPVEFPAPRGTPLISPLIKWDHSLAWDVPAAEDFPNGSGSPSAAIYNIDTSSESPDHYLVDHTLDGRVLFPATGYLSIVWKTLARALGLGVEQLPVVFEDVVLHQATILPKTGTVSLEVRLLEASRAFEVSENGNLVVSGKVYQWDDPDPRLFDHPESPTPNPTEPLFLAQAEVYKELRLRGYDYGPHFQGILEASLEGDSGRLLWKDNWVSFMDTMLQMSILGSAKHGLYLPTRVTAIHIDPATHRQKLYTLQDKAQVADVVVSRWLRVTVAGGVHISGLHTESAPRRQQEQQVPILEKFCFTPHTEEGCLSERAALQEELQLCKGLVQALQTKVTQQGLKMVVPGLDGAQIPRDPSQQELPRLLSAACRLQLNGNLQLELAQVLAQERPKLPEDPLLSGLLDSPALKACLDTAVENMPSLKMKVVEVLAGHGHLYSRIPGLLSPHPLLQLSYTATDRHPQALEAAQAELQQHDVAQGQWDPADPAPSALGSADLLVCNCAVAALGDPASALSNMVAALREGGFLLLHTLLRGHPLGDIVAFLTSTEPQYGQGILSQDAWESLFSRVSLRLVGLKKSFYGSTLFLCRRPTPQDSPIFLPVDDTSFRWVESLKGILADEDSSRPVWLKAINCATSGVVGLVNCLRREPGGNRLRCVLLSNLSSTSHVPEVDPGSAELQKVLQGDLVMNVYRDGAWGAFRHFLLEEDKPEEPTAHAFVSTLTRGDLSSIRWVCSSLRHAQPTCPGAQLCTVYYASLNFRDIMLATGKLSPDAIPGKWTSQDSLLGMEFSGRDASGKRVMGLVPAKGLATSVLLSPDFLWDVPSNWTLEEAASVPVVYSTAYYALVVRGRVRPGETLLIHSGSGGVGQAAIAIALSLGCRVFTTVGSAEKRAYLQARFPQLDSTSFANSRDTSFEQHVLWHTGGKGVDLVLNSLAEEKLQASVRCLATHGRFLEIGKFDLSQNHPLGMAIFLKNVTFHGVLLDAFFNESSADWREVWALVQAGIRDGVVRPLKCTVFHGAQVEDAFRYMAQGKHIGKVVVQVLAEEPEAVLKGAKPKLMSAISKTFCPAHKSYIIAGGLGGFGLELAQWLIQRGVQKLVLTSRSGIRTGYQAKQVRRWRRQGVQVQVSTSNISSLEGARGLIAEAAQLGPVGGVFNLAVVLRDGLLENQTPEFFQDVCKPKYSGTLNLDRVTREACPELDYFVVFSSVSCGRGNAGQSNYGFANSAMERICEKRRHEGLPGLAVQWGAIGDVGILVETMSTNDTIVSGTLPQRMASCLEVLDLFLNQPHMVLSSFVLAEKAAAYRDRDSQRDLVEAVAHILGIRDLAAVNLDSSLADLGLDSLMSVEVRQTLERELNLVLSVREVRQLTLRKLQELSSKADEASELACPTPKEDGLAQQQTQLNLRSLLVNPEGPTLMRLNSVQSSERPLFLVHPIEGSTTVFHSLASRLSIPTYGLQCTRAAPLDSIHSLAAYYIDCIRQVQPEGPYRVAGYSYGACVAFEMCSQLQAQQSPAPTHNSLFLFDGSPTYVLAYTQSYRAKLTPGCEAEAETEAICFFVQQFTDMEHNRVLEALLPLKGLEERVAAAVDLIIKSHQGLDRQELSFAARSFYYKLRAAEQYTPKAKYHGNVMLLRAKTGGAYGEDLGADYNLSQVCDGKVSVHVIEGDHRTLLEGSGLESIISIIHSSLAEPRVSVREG

[11] = target: T2, Fatty acid synthase; test: inhibition of human FAS-TE enzyme activity – biochemical, kinetic fluorescence intensity, dose response (AID 624326); assay type: functional;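 also: rate of fluorescence rise from hydrolysis of a fluorogenic O-methyl fluorescein ester substrate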
[12] = target: Paired box protein Pax-8 (Homo sapiens, UniProt Q06710); test: PAX8 transcriptional activity inhibition in RMG-I – RMG-I cells, luciferase, cherry-pick, dose response (AID 687027); assay type: functional, cell-based;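 also: luciferase reporter driven by Pax8 target thyroperoxidase promoter measured by SteadyGlo luminescence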
Paired box protein Pax-8, sequence (Q06710 whole entry): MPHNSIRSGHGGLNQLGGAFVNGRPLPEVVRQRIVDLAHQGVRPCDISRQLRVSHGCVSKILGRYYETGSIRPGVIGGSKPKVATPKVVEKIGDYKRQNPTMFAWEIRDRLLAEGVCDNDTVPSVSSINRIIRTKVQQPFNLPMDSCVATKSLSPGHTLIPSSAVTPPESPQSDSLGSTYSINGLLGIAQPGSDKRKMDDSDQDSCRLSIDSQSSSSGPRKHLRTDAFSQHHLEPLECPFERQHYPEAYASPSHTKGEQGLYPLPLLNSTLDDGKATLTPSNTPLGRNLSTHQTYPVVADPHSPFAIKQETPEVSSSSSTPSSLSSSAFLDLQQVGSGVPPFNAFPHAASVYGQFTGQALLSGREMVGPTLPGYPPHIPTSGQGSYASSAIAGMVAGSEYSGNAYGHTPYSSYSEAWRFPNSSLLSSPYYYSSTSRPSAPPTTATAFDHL

[13] = test system: INS1; test: INS-1E survival protection against cytokine death – cell-based, luminescence, retest, dose response (AID 449756); assay type: functional; details: Rattus norvegicus;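 also: cell death triggered by IL-1 beta plus TNF-alpha plus IFN-gamma mixture; protective hits raise ATP signal compared with cytokine alone wells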

For `Nc1ccccc1Sc1ccc(C(F)(F)F)cc1[N+](=O)[O-]`, which IC50 [1] is on record?
Its IC50 is 2.55 µM (active).

With `CCOC(=O)/C(=C/c1ccc(OC(F)F)cc1)C1=Nn2c(nnc2-c2ccc(Cl)cc2)SC1` as the compound, how does the CC50 [2] read?
Its CC50 is 7.48 µM (active).

What does the source list for `Cc1ccc(N(CCCCN2C(=O)c3ccccc3C2=O)C(=O)c2ccc(Cl)s2)cc1`?
CC50 [3]: 24.1 µM (active); IC50 [1]: 2.83 µM (not active)

With `Cc1ccc(NC2CCCN(C(=O)c3snnc3C)C2)cc1C` (centres undefined) as the compound, how does the AC50 [4] read?
Its AC50 is 1.64 µM (active).

With `Cc1ccccc1NC(=O)Cn1c(=O)n(Cc2ccccc2)c(=O)c2c(C)c(C)sc21` as the compound, how does the IC50 [1] read?
Its IC50 is 15 µM (not active).

With `C=CCOc1ccc(CN(C)CC(O)COc2cccc3ccccc23)cc1` (centres undefined) as the compound, how does the CC50 [3] read?
Its CC50 is 26.1 µM (active).

For `COc1cccc(N2CCN(CC(=O)NCc3cccs3)CC2)c1`, which AC50 [4] is on record?
The AC50 was 4.1 µM (active).

Which results are given for `Nc1nc(N)c2cc(CNc3ccc(Cl)c(Cl)c3)ccc2n1`?
AC50 [5]: 0.956 µM (active); AC50 [6]: 1.21 µM (active); AC50 [7]: 3.34 µM (active)

For `Cc1nc(Nc2ccccc2Cl)sc1C(=O)Nc1ccccc1`, which EC50 [8] is on record?
The EC50 was 28.6 µM (active).

What about the EC50 [9] of the same compound?
The EC50 was > 38 µM (not active).

For `COC(=O)c1cc(C(=O)OCC(=O)NC2CCCCCCC2)cc([N+](=O)[O-])c1`, which IC50 [10] is on record?
The IC50 was 7.09 µM (active).

And the IC50 [11]?
Its IC50 is 8 µM (active).

With `O=C(/C=C/c1cc([N+](=O)[O-])ccc1OC(F)F)NCc1ccc(F)cc1` as the compound, how does the IC50 [10] read?
The IC50 was 1.33 µM (active).

What about the IC50 [11] of the same compound?
Its IC50 is 0.999 µM (active).

For `O=[N+]([O-])c1cccc(/C=N\N=C2c3ccccc3-c3ccccc32)c1O`, which IC50 [1] is on record?
Its IC50 is < 0.4 µM (not active).

What does the source list for `C=C1CC(COc2ccc3c(C)c(Cl)c(=O)oc3c2)(c2ccccc2)OC1=O` (centres undefined)?
AC50 [5]: 4.82 µM (active); AC50 [6]: 13.2 µM (active); AC50 [7]: 9.25 µM (active); IC50 [10]: 10.5 µM (active); IC50 [11]: 12 µM (active); AC50 [12]: 5.9 µM (active)

For `CC(C)NC(=O)COC(=O)c1cccc(NS(=O)(=O)/C=C/c2ccccc2)c1`, which EC50 [8] is on record?
The EC50 was > 160 µM (inactive).

For `Cc1ccccc1NC(=O)Cc1nc(CCl)cs1`, which AC50 [4] is on record?
Its AC50 is 10.8 µM (active).

For `CC(C)Cn1c(N)c(C(=O)COC(=O)c2ccc(Cl)cc2)c(=O)n(C)c1=O`, which IC50 [1] is on record?
The IC50 was 2.21 µM (active).

For `O=C(CCNC(=O)c1ccc([N+](=O)[O-])cc1)NCCC1=CCCCC1`, which IC50 [10] is on record?
The IC50 was 3.75 µM (active).

And the IC50 [11]?
Its IC50 is 3.4 µM (active).

With `Cc1ccc(NC2CCCN(C(=O)C3CCCC3)C2)cc1C` (centres undefined) as the compound, how does the AC50 [4] read?
The AC50 was 4.78 µM (active).

For `COc1cc(CNc2ncc(-c3ccc(Cl)cc3)n2C)cc(OC)c1OC`, which AC50 [4] is on record?
The AC50 was 4.59 µM (active).

For `O=C(CN1C(=O)c2ccc([N+](=O)[O-])cc2C1=O)NCCC1=CCCCC1`, which IC50 [10] is on record?
Its IC50 is 20.9 µM (inactive).

What about the IC50 [11] of the same compound?
Its IC50 is 15.4 µM (active).

What does the source list for `CN(C(=O)COC(=O)c1cc([N+](=O)[O-])ccc1Cl)c1ccccc1`?
IC50 [10]: 9.59 µM (active); IC50 [11]: 7 µM (active)

Which AC50 [4] does the source give for `COc1ccc(NCc2nc3ccccc3n2C)cc1` here?
Its AC50 is 3.46 µM (active).

What does the source list for `Cc1ccc(-c2[nH]ncc2/C=N/n2c(COc3ccccc3C)nc3ccccc3c2=O)cc1`?
IC50 [1]: 28 µM (not active); AC50 [13]: 6.28 µM (active)

For `CC/C(=N\NC(N)=O)c1ccc(OC(F)F)cc1`, which CC50 [3] is on record?
The CC50 was 27.5 µM (active).
